The values below come from patent US20250176548A1, “POLYMERIC IMIDAZOLIUM COMPOUNDS FOR ENHANCING THE ACTIVITY OF ANTIMICROBIAL AGENTS” (BASF SE, priority 2022, published 2025).

The test system of experiment [1] is Escherichia coli (E. coli DSM 682). Nature of the experiment: Bactericidal activity of cleaner/disinfecting formulations, DIN EN 1276-2010, dirty conditions. The following applies: 0.3% bovine albumin, 35° C., 5 min contact time. In kind it is cell-based. Here is the method:
(§1) For biological activity testing, the following microorganisms were used: • Escherichia coli(E. coli DSM 682) • Salmonella enterica subsp. enterica (S enterica ATCC 10708)
(§2) The imidazolium polymer of example 1 (imidazolium polymer 1) and benzalkonium chloride (BAC) were formulated into various dilutable concentrated hard-surface cleaners. The finished formulations were pre-dissolved 1:200 in standardized hard water (DIN EN 1276-2010) and then diluted to 80% by adding 1 ml of the inoculate and 1 ml of bovine albumin solution to 8 ml of the pre-dissolved cleaner, so that in-test a dilution of 1:250 was obtained. The amounts relate to active substance.
(§3) Antimicrobial testing of the above formulations in 1:250 dilution was done according to European Standard (DIN EN 1276-2010) under dirty conditions, i.e. additional soiling of 0.3% bovine albumin at 35° C. and 5 min contact time. Neutralization was done using the Saponin-containing neutralizer as described in DIN EN 1276 (30 g/l Polysorbate 80+30 g/l Saponin+3 g/l Lecithin). Results are documented in the table below as logarithmic reduction (Ig R) in comparison to the number of microorganisms used for the test.
The imidazolium polymer of example 1 (imidazolium polymer 1) and didecyldimethylammonium chloride (DDAC) were formulated into various dilutable concentrated hard-surface cleaners. The finished formulations were pre-dissolved 1:200 in standardized hard water (DIN EN 1276-2010) and then diluted to 80% by adding 1 ml of the inoculate and 1 ml of bovine albumin solution to 8 ml of the pre-dissolved cleaner, so that in-test a dilution of 1:250 was obtained. The amounts relate to active substance.
Antimicrobial testing of the above formulations in 1:250 dilution was done according to European Standard (DIN EN 1276-2010) under dirty conditions, i.e. additional soiling of 0.3% bovine albumin at 35° C. and 5 min contact time. Neutralization was done using the Saponin-containing neutralizer as described in DIN EN 1276 (30 g/l Polysorbate 80+30 g/I Saponin+3 g/I Lecithin). Results are documented in the table below as logarithmic reduction (Ig R) in comparison to the number of microorganisms used for the test.

The subject of experiment [2] is Salmonella enterica subsp. enterica (S enterica ATCC 10708). Described as above. The following applies: BAC 40 ppm in cleaner diluted 1:250; 0.3% bovine albumin, 35° C., 5 min contact time. It is filed as cell-based. Here is the method: as §1, §2, §3

For the molecule `CCCCCCCCCCCC[N+](C)(C)Cc1ccccc1.[Cl-]` [BAC, lauryl dimethyl benzyl ammonium chloride], the “E. coli logarithmic reduction (lg R)” value is given as 0.5 lg R in experiment [1] (BAC 20 ppm in cleaner diluted 1:250) and 2.7 lg R in experiment [1] (BAC 40 ppm in cleaner diluted 1:250). The “S. enterica logarithmic reduction (lg R)” value in experiment [2] was 0.5 lg R.
As to `CCCCCCCCCC[N+](C)(C)CCCCCCCCCC.[Cl-]` [DDAC, didecyldimethylammonium chloride], the “E. coli logarithmic reduction (lg R)” value in experiment [1] (DDAC 10 ppm in cleaner diluted 1:250) is given as 0.2 lg R; in experiment [1] (DDAC 20 ppm in cleaner diluted 1:250), 1.2 lg R.
